Where two headings read alike, the source gives them in different places. Values belong to the molecule of their own block, whether it stands above or below them.
How the values were obtained:
[1] = test system: IL-6/STAT3 signaling pathway; assay: STAT3-dependent luciferase reporter assay; format: cell-based, human; details: for IC50: HepG2/STAT3 luciferase cells, compound 1 h then IL-6 10 ng/mL 5.5 h
Excerpt: HepG2/STAT3 cells, a gift of Prof. Xinyuan Fu (National University of Singapore, Singapore), were the human hepatocellular carcinoma HepG2 cells stably transfected with a STAT3-responsive firefly luciferase reporter plasmid. Briefly, three tandem repeats of the oligonucleotide […], which contains the DNA binding sequence of STAT3, was artificially synthesized and introduced into the luciferase reporter vector pGL2-P plasmid (Promega). The pGL2-P/STAT3 construct was confirmed by sequencing. The luciferase reporter plasmid pGL2-P/STAT3 was used to transfect HepG2 cells using Lipofectamine 2000 (Invitrogen). The stably transfected HepG2 cell line with the pGL2-P/STAT3 plasmid was obtained by screening for G418-resistant cell clones.
The inhibitory activities on IL-6/STAT3 signaling were determined by STAT3-dependent luciferase reporter assay described in our previously report. HepG2/STAT3 cells were HepG2 cells stably transfected with a STAT3-responsive firefly luciferase reporter plasmid. The expression level of luciferase reached its peak value after 5–6 h stimulation by interleukin (IL)-6. HepG2/STAT3 cells (2 × 10^4 per well) were seeded into 96-well cell culture microplates (Corning) and allowed to grow for 48 h and then treated with compounds 1–8 (0, 0.00001, 0.0001, 0.001, 0.01, 0.1, 1, 4, 20 μM) for 1 h followed by stimulation with 10 ng/mL interleukin (IL)-6 (BD Biosciences) for 5.5 h (cells were treated with compounds 1–8 for 6.5h). Luciferase activities were measured with the Promega luciferase kit (# E4550) according to the manufacturer’s instruction. All luciferase assay experiments were carried out at least thrice in triplicate to minimize the difference caused by cell number. The JAK2/STAT3 inhibitor pyridone 6 (Merck Chemical) was used as a positive control.

[2] = test system: HepG2/STAT3-luciferase cells; assay: MTT cell viability assay, HepG2/STAT3-luciferase cells 6.5 h; format: cell-based, human; details: 0.016-100 μM
Protocol: (§1) The cell growth inhibitory activities on human hepatocellular carcinoma cells were examined by the MTT (3-(4,5-dimethylthiazol–2-yl)-2,5-diphenyl tetrazolium bromide). About 3.5 × 10^4 cells per well were seeded into 96-well plates for 24 h. HepG2/STAT3 cells were then treated with vehicle control (DMSO) or 2-ethoxystypandrone (1) at indicated concentrations (0.016, 0.08, 0.4, 2, 10, 50, 100 μM) for 6.5 h. HCC Huh-7, Li-7, SK-HEP-1, HepG3B, and HepG2 cells were treated with 2-ethoxystypandrone (1) at indicated concentrations for 72 h. The assay was carried out by adding a MTT solution (20 μL, 5 mg/mL; Sigma Chemical Co.) to each well and incubating for 3 h at 37 °C to form MTT-formazan crystals by metabolically viable cells. The supernatant was aspirated, and the MTT-formazan crystals were dissolved in DMSO (150 μL). The absorbance was measured by a microplate reader (BioTek Instruments, USA) at a wavelength of 492/620 nm.

Li-7 cells = assay: MTT cell viability assay, Li-7; format: cell-based; details: Homo sapiens, Li-7, 72 h, read-out: IC50, cell growth/viability
Protocol: (§2) Human hepatocellular carcinoma Hep3B and HepG2 were obtained from the American Type Culture Collection. Human hepatocellular carcinoma Huh-7, Li-7 and SK-HEP-1 cells were kindly provided by Stem Cell Bank, Chinese Academy of Sciences. HepG2/STAT3 cells were cultured in α-MEM (Life Technologies, USA) with 10% FCS (Life Technologies, USA) and the rest cell lines were cultured in DMEM (Life Technologies) with 10% FCS (Life Technologies, USA).
as §1

SK-HEP-1 cells = assay: MTT cell viability assay, SK-HEP-1; format: cell-based; details: Homo sapiens, SK-HEP1, SK-HEP-1, 72 h, read-out: IC50, cell growth/viability
Protocol: as §2, §1

[3] = test system: STAT3 tyrosine phosphorylation (Tyrosine 705) in HepG2/STAT3 cells; assay: Western blot, IL-6-induced STAT3 tyrosine phosphorylation; format: cell-based, human; details: 2 h pretreatment 2-100 μM, IL-6 15 min
Protocol: Expression of STAT3 and p-STAT3 proteins was analyzed by Western Blot analysis described in previous report. HepG2/STAT3 cells or HepG2 cells were grown to 70–80% confluency and then pre-treated with 2-ethoxystypandrone (1) at different concentrations (0, 2, 10, 50,100 μM) for 2 h. The cells were stimulated with IL-6 for 15 min (the phosphorylation of STAT3 appeared in the 15 min) and then lysed in Laemmli sample buffer and boiled for 5 min. Proteins were then separated by 8% SDS-PAGE and transferred to nitrocellulose membranes. Membranes were blocked in TBS containing 5% nonfat milk 0.1% and Tween 20 (TBST) for 1 h at room temperature and then incubated for 2 h in TBST containing primary antibodies and 5% bovine serum albumin. After being washed with TBST, membranes were then incubated with horseradish peroxidase-conjugated goat anti-mouse IgG (H + L) secondary antibody (#GAM007, MultiSciences) for 1 h, and finally immune complexes were detected by enhanced chemiluminescence. Primary antibodies used in Western blot were mouse anti-STAT3 (#9139,CST), mouse anti-pY-STAT3 (Tyrosine 705, #9138, CST), and mouse anti-α-tubulin (#sc5286, Santa Cruz).

Huh-7 cells [4] = assay: Annexin V/PI flow cytometry apoptosis, Huh-7; format: cell-based, human; details: Huh-7, 8 μM, 24 h
Protocol: Huh-7 cells were grown to 70–80% confluence and then treated with various concentrations (0, 2, 4, and 8 μM) of 2-ethoxystypandrone (1) for 24 h. The cells were harvested and […]. The cells were then treated with FITC Annexin V apoptosis detection kit I (BD Biosciences Pharmingen) according to the manufacturer’s protocol and the samples were immediately then analyzed by flow cytometry (BD Canto II, USA). The percentage of cells undergoing apoptosis was calculated with CELLQuest 3.0 software. The dots in the lower left quadrant, upper left quadrant, upper right quadrant, and lower right quadrant represent the viable cells, the damages cells, the cells in late apoptosis and the cells in early apoptosis, respectively.

Huh-7 cells [5] = assay: MTT cell viability assay, Huh-7; format: cell-based; details: Homo sapiens, Huh-7, 72 h, read-out: IC50, cell growth/viability
Protocol: as §2, §1

HepG3B cells = assay: MTT cell viability assay, HepG3B; format: cell-based; details: Homo sapiens, 72 h, read-out: IC50, cell growth/viability
Protocol: as §2, §1

[6] = test system: human HCC cell lines (Huh-7, Li-7, SK-HEP-1, HepG3B, and HepG2); assay: MTT cell viability assay, panel of human HCC cell lines; format: cell-based; details: five HCC cell lines, 72 h, read-out: IC50 range over tested HCC cells
Protocol: as §2, §1

HepG2 cells = assay: MTT cell viability assay, HepG2; format: cell-based; details: Homo sapiens, HepG2, 72 h, read-out: IC50, cell growth/viability
Protocol: as §2, §1

HCC CSCs [7] = assay: PI flow cytometry cell cycle distribution, HCC CSCs; format: cell-based, human; details: 10 μM, 24 h
Protocol: (§3) HCC cancer stem cells were isolated from HCC Huh-7 cell line by serum-free cancer stem cell culture selection. The Huh-7 cells were collected and washed to remove serum, then suspended and plated in cancer stem cell conditioned culture medium (CSC medium) supplemented with 100 IU/ML pennicillin and 100 μg/ml streptomycin. CSC medium used for sustaining cancer stemness was serum-free DMEM/F12 containing 10 ng/ml basic fibroblast growth factor (bFGF), 20 ng/ml epidermal growth factor (EGF), 4 μg/ml heparin, 100 μg/ml apotransferrin, 25 μg/ml insulin, 9.6 μg/ml putrescin, 20 nM progesterone, 30 nM sodium selenite anhydrous, and 4 mg/ml bovine serum albumin. The Huh-7 cells were subsequently cultured in ultra-low attachment 6-well plates at a density of 5000 cells/well, half volume of the flesh medium was exchanged every second day. After 10–14 days of culture, the most Huh-7 cells died and the cells grew up as nonadherent, three-dimensional sphere clusters.
For analysis the apoptosis of HCC CSCs, the suspended tumorspheres were harvested and dissociated mechanically into single cells with 0.005% trypsin-EDTA for 2 min and the dissociated cells were re-seeded with CSC medium and treated with indicated concentrations (0, 5, 8, and 10 μM) of 2-ethoxystypandrone (1) for 24 h. The cells were harvested and then treated with FITC Annexin V apoptosis detection kit I (BD Biosciences Pharmingen, USA) according to the manufacturer’s protocol respectively and the samples were immediately then analyzed by flow cytometry (BD Canto II, USA). […] After washing the cells with pre-cooled PBS twice, the cells were then treated with Propidium iodide (PI)/RNase Staining Buffer (BD Biosciences Pharmingen, USA) according to the manufacturer’s protocol respectively and the samples were immediately then analyzed by flow cytometry (BD Canto II,USA).

[8] = test system: HCC CSCs isolated from HCC Huh-7 cells; assay: Tumorsphere formation assay; format: cell-based, human; details: 72 h
Protocol: as §3, with “The Huh-7 cells were subsequently cultured in ultra-low attachment 6-well plates at a density of 5000 cells/well, half volume of the flesh medium was exchanged every second day. After 10–14 days of culture, the most Huh-7 cells died and the cells grew up as nonadherent, three-dimensional sphere clusters.” left out
To propagate the tumorspheres in vitro, spheres were collected by gentle centrifugation, dissociated with 0.005% trypsin-EDTA for 2 min, then added CSC medium and mechanically dissociated with a pipette to single cells. […] The dissociated single sphere-forming cells were diluted to a density of 1000 cells/ml, Then, the 1ml/well diluted cell suspension was plated to ultra-low attachment 12 wells plate and treated with indicated concentrations (0, 0.5, 1, 2, 3, 5, 8 and 10 μM) of compound 2-ethoxystypandrone for 72 h, the tumorspheres were photographed under an inverted microscope (Leica DMi8, Germany) and the tumorspheres larger than 50 μm in diameter were counted using ImageJ 1.45.

HCC CSCs [9] = assay: Annexin V flow cytometry apoptosis, HCC CSCs; format: cell-based, human
Protocol: as §3, with “The Huh-7 cells were subsequently cultured in ultra-low attachment 6-well plates at a density of 5000 cells/well, half volume of the flesh medium was exchanged every second day. After 10–14 days of culture, the most Huh-7 cells died and the cells grew up as nonadherent, three-dimensional sphere clusters.” left out
For analysis the apoptosis of HCC CSCs, the suspended tumorspheres were harvested and dissociated mechanically into single cells with 0.005% trypsin-EDTA for 2 min and the dissociated cells were re-seeded with CSC medium and treated with indicated concentrations (0, 5, 8, and 10 μM) of 2-ethoxystypandrone (1) for 24 h. The cells were harvested and then treated with FITC Annexin V apoptosis detection kit I (BD Biosciences Pharmingen, USA) according to the manufacturer’s protocol respectively and the samples were immediately then analyzed by flow cytometry (BD Canto II, USA). […]

[10] = test system: IL-6/STAT3 signaling pathway; set-up: method as in PMID 22855270; details: previously reported value; read-out: IC50 against STAT3 signaling; cited from earlier work

Compound: CC(C)(C)c1nc2c3cc[nH]c(=O)c3c3cc(F)ccc3c2[nH]1 [pyridone 6, reference compound]
IC50 [1]: 0.02 ± 0.001 µM

Compound: CCOC1=CC(=O)c2c(cc(C)c(C(C)=O)c2O)C1=O [compound 1, 2-ethoxy-6-acetyl-7-methyl-juglone]
cell viability [2]: not completely dead | IC50 ([1]; Homo sapiens): 7.75 ± 0.18 µM | increased potency against STAT3 signaling compared with 2-methoxystypandrone ([1]; ratio of IC50 values): 2 fold | IC50 (Li-7 cells): 5.58 ± 0.89 µM | IC50 (SK-HEP-1 cells): 8.78 µM | IL-6-induced STAT3 tyrosine phosphorylation [3]: inhibit the IL-6-induced STAT3 tyrosine phosphorylation in a dose-dependent manner | total apoptosis (Huh-7 cells [4]): 88.6 ± 1.4% | IC50 (Huh-7 cells [5]): 3.69 ± 0.51 µM | IC50 (HepG3B cells): 16.7 ± 0.58 µM | IC50 [6]: 3.69 to 20.4 µM | IC50 (HepG2 cells): 20.4 ± 2.9 µM | cells in G0/G1 (HCC CSCs [7]): 37.53 ± 1.32% | cells in G2/M phase (HCC CSCs [7]): 18.5 ± 0.36% | cells in S phase (HCC CSCs [7]): 43.96 ± 1.07% | self-renewal and tumorsphere formation vs control ([8]; 2 μM): significantly blocked self-renewal and the tumorsphere formation | IC50 ([8]; Homo sapiens, Huh-7, HCC CSCs, spheres larger than 50 μm counted): 2.7 ± 0.28 µM | percentage of apoptotic cells (HCC CSCs [9]; 10 μM, 24 h): 41.2 ± 4.3% | early apoptotic cells (HCC CSCs [9]; 24 h (text; 10 μM per Fig. 5a)): 38.2 ± 4.2%

Compound: COC1=CC(=O)c2c(cc(C)c(C(C)=O)c2O)C1=O [2-methoxystypandrone, 2-methoxy-6-acetyl-7-methyl-juglone]
IC50 [10]: 17.2 ± 0.21 µM

Now from value to molecule:

IC50 ([1]; Homo sapiens): > 100 µM
Compound: O=C(OC1C(Oc2cc(O)cc(C=Cc3ccc(O)cc3)c2)OC(CO)C(O)C1O)c1cc(O)c(O)c(O)c1 (stereo not drawn) [compound 5, polydatin-2′-O-gallate]

IC50 ([1]; Homo sapiens): > 100 µM
Compound: OC[C@H]1O[C@@H](Oc2cc(O)cc(/C=C/c3ccc(O)cc3)c2)[C@H](O)[C@@H](O)[C@@H]1O [compound 6, polydatin]

IC50 ([1]; Homo sapiens): > 100 µM
Compound: O=C1COc2cc(O)cc(O)c21 [compound 3, 4,6-dihydroxybenzofuran-3-one]

IC50 ([1]; Homo sapiens): > 100 µM
Compound: O=C(OC1Cc2c(O)cc(O)cc2OC1c1ccc(O)c(O)c1)c1cc(O)c(O)c(O)c1 (stereo not drawn) [compound 7, catechin-3-O-gallate]

Reference: PMC6359800, “2-Ethoxystypandrone, a novel small-molecule STAT3 signaling inhibitor from Polygonum cuspidatum, inhibits cell growth and induces apoptosis of HCC cells and HCC Cancer stem cells” (BMC Complementary and Alternative Medicine, 2019)
